Measured values published in BindingDB's records for doi:10.1016/j.ejmech.2009.07.027 (Trinity College, 2009).

Experiment: Induction of human SERT-dependent cytotoxicity in SERT expressing HEK293 cells after 48 hrs by neutral red assay

Structure (SMILES): CCSc1ccc(CC(CC)NC)cc1 (stereo unspecified) [2-N-Methylamino-1-(4-ethylthiophenyl)butane]
- EC50: > 100 µM
